Results on 3 molecules are retold here after patent US7026281B1, “Antagonistic analogs of GH-RH inhibiting IGF-I and -II” (The Administrators of the Tulane Educational Fund, priority 1998, dated 2006).

Structures are written as SMILES. pKi: −log10 of the molar value. Square brackets hold non-standard residues; d marks the D form. Peptide text beside a SMILES is read from it. * marks the point of attachment. Phe(4-Cl) = N[C@@H](Cc1ccc(Cl)cc1)C(=O)O; hArg = N=C(N)NCCCC[C@H](N)C(=O)O; X1 = O=C(Cc1c[nH]c2ccccc12)*; Nle = CCCC[C@H](N)C(=O)O; Abu = CC[C@H](N)C(=O)O; PhAc = O=C(Cc1ccccc1)*

Assay [1] concerns GH release stimulated by hGH-RH(1–29)NH2. As to the kind of experiment: In vivo inhibition of serum GH response in rats. Details: species or system rat. Here is the method: GH-RH antagonistic effect of the analogs was tested on young male Sprague-Dawley rats (200–250 g). In each experiment, 5 groups of 7 animals each were used. The compounds (80 μg/kg) and GH-RH(1–29)NH2 (3 μg/kg) were dissolved in 5.5% mannitol and given intravenously to the jugular vein of the rats under Nembutal anesthesia. The time elapsed between the administrations of the antagonist and GH-RH varied between groups, according to the following schedule. The first group of animals received GH-RH injection 5 min after the administration of the antagonist; for the second, third and fourth group of animals, the time interval elapsed between the injection of the antagonist and that of GH-RH was 15, 30, and 60 min, respectively. The control group was first injected with the solvent alone instead of the antagonist, followed by a GH-RH injection 5 min later.
0.4 mL blood samples were taken for GH RIA before the administration of the antagonist (“blood0”), and 5 min after the injection of GH-RH (“blood1”). The GH response in each group was calculated as rGH=(GHblood1/GHblood0), mean±S.E.M. of the individual differences. Relative inhibition of GH response (%) in each group treated was calculated as […].

For assay [2], the system named is hGH-RH(1–29)NH2 induced GH release. As to the kind of experiment: Inhibition of GH release in superfused rat pituitary system. It counts as cell-based. Particulars: for Inhibition of GH release (%) 30 min: 1 nM hGH-RH(1–29)NH2 30 min later; for Inhibition of GH release (%) 60 min: 1 nM hGH-RH(1–29)NH2 60 min later; for Inhibition of GH release (%) 90 min: 1 nM hGH-RH(1–29)NH2 90 min later; for Inhibition of GH release (%) 120 min: 1 nM hGH-RH(1–29)NH2 120 min later; for Inhibition of GH release (%) 0 min: 1 nM hGH-RH(1–29)NH2 at 0 min. Here is the method: Superfused Rat Pituitary System.
The analogs were tested in vitro in a test described earlier (S. Vigh and A. V. Schally, Peptides 5:241–347, 1984) with modification (Z. Rekasi and A. V. Schally, P.N.A.S. 90:2146–2149, 1993).
Briefly, the cells are preincubated with peptides for 9 minutes (3 mL) at various concentrations. Immediately after the incubation, 1 nM hGH-RH(1–29)NH2 is administered for 3 minutes (1 mL) [0 minute response]. To check the duration of the antagonistic effect of the analogue, 1 nM hGH-RH(1–29)NH2 is applied 30, 60, 90, and 120 minutes later for 3 minutes [30, 60, 90, 120 min responses]. Net integral values of the GH responses are evaluated. GH responses are compared to and expressed as percent of the original GH response induced by 1 nM GH-RH(1–29)NH2. The effect of the new antagonists are compared to that of [Ac-Tyr^1,D-Arg^2]hGH-RH(1–29)NH2, the “Standard antagonist”.
Growth Hormone Radio-immunoassay.
Rat GH levels in aliquots of undiluted and diluted superfusion samples were measured by double-antibody radioimmunoassay using materials supplied by the National Hormone and Pituitary Program, Baltimore, Md. The results of RIA were analyzed with a computer program developed in our institute (V. Csernus and A. V. Schally, in Neuroendocrine Research Methods, Harwood Academic (Greenstein, B. D. ed., London, pp. 71–109, 1991), hereby incorporated by reference. Inter-assay variation was less than 15% and intra-assay variation was less than 10%.

Assay [3] deals with T1, rat pituitary GH-RH receptors (Rattus norvegicus, UniProt Q02644).
T1 construct: from tissue; host or cells: anterior pituitary of male Sprague-Dawley rats, crude membrane homogenates
T1 sequence (Q02644 23-464): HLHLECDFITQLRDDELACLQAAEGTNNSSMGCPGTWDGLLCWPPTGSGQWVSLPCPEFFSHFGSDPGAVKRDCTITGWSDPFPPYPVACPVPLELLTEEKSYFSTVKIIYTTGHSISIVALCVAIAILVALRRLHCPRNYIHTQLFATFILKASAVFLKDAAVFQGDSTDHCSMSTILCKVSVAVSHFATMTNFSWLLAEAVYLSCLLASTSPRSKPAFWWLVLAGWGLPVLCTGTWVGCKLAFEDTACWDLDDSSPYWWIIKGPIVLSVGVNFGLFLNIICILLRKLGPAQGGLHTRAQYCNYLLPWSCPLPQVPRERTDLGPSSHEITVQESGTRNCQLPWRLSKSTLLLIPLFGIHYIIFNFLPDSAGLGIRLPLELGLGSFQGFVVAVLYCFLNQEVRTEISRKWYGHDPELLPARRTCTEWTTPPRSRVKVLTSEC
In words: GH-RH radioreceptor binding assay, rat anterior pituitary membrane homogenates. Particulars: for pKi: competition with [His1,125I-Tyr10,Nle27]hGH-RH(1–32)NH2; for R.A. (relative affinity compared to Standard antagonist): ratio of Ki values. How it is done:
GH-RH Binding Assay. A sensitive radioreceptor binding assay was developed to determine the binding characteristics of the antagonists of GH-RH (G. Halmos, A. V. Schally et al., Receptor 3, 87–97, 1993), hereby incorporated by reference. The assay is based on binding of labelled [His^1,Nle^27]hGH-RH(1–32)NH2 to rat anterior pituitary membrane homogenates. Iodinated derivatives of [His^1,Nle^27]hGH-RH(1–32)NH2 are prepared by the chloramine-T method (F. C. Greenwood et al., Biochemistry 89:114–123, 1963), hereby incorporated by reference. Pituitaries from male Sprague-Dawley rats (250–300 g) are used to prepare crude membranes. For saturation binding analyses, membrane homogenates are incubated with at least 6 concentrations of [His^1,^125I-Tyr^10,Nle^27]hGH-RH(1–32) NH2, ranging from 0.005 to 0.35 nM in the presence or absence of excess unlabelled peptide (1 μM).
The pellet is counted for radioactivity in a γ-counter. The affinities of the antagonist peptides tested to rat pituitary GH-RH receptors are determined in competitive binding experiments. The final binding affinities are estimated by Ki (dissociation constant of the inhibitor-receptor complex) and are determined by the Ligand PC and McPherson computer programs of Munson and Rodbard (P. J. Munson and D. Rodbard, Anal. Biochem. 107. 220–239, 1980). Relative affinities compared to [Ac-Tyr^1,D-Arg^2]hGH-RH(1–29)NH2, the Standard antagonist, are calculated as the […].

As a reminder, the pKi is the Ki on a negative log10 scale, so that one unit is a factor of ten. Read a high pKi as a small Ki. On to `CCCC[C@H](NC(=O)[C@@H](NC(=O)[C@H](CC(=O)O)NC(=O)[C@H](CCC(N)=O)NC(=O)[C@H](CC(C)C)NC(=O)[C@H](CC(C)C)NC(=O)[C@H](CCCCN)NC(=O)[C@H](CCCNC(=N)N)NC(=O)[C@H](C)NC(=O)[C@H](CO)NC(=O)[C@H](CC(C)C)NC(=O)[C@H](CCC(N)=O)NC(=O)[C@H](CC)NC(=O)[C@H](CC(C)C)NC(=O)[C@@H](NC(=O)[C@H](CCCCN)NC(=O)[C@H](CCCNC(=N)N)NC(=O)[C@H](Cc1ccc(O)cc1)NC(=O)[C@H](CCCNC(=N)N)NC(=O)[C@H](CC(N)=O)NC(=O)[C@@H](NC(=O)[C@H](Cc1ccc(Cl)cc1)NC(=O)[C@@H](NC(=O)[C@H](C)NC(=O)[C@H](CC(=O)O)NC(=O)[C@@H](CCCNC(=N)N)NC(=O)[C@H](Cc1ccc(O)cc1)NC(=O)Cc1c[nH]c2ccccc12)[C@@H](C)CC)[C@@H](C)O)C(C)C)[C@@H](C)CC)C(=O)N[C@H](CCCNC(=N)N)C(=O)N[C@@H](CCCCNC(=N)N)C(N)=O` [Peptide 2, [IndAc^0, D-Arg^2, Phe(pCl)^6, Arg^9, Abu^15, Nle^27, D-Arg^28, Har^29]hGH-RH(1–29)NH2] (X1-Y[dR]DAI[Phe(4-Cl)]TNRYRKVL[Abu]QLSARKLLQDI[Nle][dR][hArg]-NH2), for which the “Inhibition of the GH release stimulated by hGH-RH(1–29)NH2 (in words)” value in assay [1] (80 μg/kg i.v., rats) was “strong and long-lasting inhibition”. The “Relative inhibition % of GH response” value in assay [1] (antagonist 80 μg/kg i.v. 5 min before GH-RH) is 91%; in assay [1] (antagonist 80 μg/kg i.v. 15 min before GH-RH) it was 45%; in assay [1] (antagonist 80 μg/kg i.v. 30 min before GH-RH) it was 41%; in assay [1] (antagonist 80 μg/kg i.v. 60 min before GH-RH), 2%. Also, the “GH response mean ± S.E.M.” value in assay [1] (antagonist 80 μg/kg i.v. 15 min before GH-RH 3 μg/kg) was determined as 3.45 ± 0.13; in assay [1] (antagonist 80 μg/kg i.v. 30 min before GH-RH 3 μg/kg), 3.64 ± 0.71; in assay [1] (antagonist 80 μg/kg i.v. 60 min before GH-RH 3 μg/kg) it was 5.41 ± 1.35; in assay [1] (rGH=GHblood1/GHblood0, antagonist 80 μg/kg i.v. 5 min before GH-RH 3 μg/kg) it was 1.40 ± 0.29. Further, the “Inhibition of GH release (%) 30 min” value in assay [2] (antagonist 30 nM) amounted to 100%. For the same molecule, in assay [2] (antagonist 30 nM), the “Inhibition of GH release (%) 60 min” value is 100%. Moreover, the “Inhibition of GH release (%) 90 min” value in assay [2] (antagonist 30 nM) is 100%. Moreover, the “Inhibition of GH release (%) 120 min” value in assay [2] (antagonist 30 nM) stood at 91%. The “Inhibition of GH release (%) 0 min” value in assay [2] (antagonist 30 nM) came out at 100%. Moreover, the pKi in assay [3] was 10.34. In assay [3], the “R.A. (relative affinity compared to Standard antagonist)” value came out at 64.

As for `CCCC[C@H](NC(=O)[C@H](CC(N)=O)NC(=O)[C@@H](NC(=O)[C@H](Cc1ccc(Cl)cc1)NC(=O)[C@@H](NC(=O)[C@H](C)NC(=O)[C@H](CC(=O)O)NC(=O)[C@@H](CCCNC(=N)N)NC(=O)[C@H](Cc1ccc(O)cc1)NC(=O)Cc1ccccc1)[C@@H](C)CC)[C@@H](C)O)C(=O)N[C@@H](Cc1ccc(O)cc1)C(=O)N[C@@H](CCCNC(=N)N)C(=O)N[C@@H](CCCCN)C(=O)N[C@H](C(=O)N[C@@H](CC(C)C)C(=O)N[C@@H](CC)C(=O)N[C@@H](CCC(N)=O)C(=O)N[C@@H](CC(C)C)C(=O)N[C@@H](CO)C(=O)N[C@@H](C)C(=O)N[C@@H](CCCNC(=N)N)C(=O)N[C@@H](CCCCN)C(=O)N[C@@H](CC(C)C)C(=O)N[C@@H](CC(C)C)C(=O)N[C@@H](CCC(N)=O)C(=O)N[C@@H](CC(=O)O)C(=O)N[C@H](C(=O)N[C@@H](CCCC)C(=O)N[C@@H](CO)C(=O)N[C@H](CCCNC(=N)N)C(N)=O)[C@@H](C)CC)C(C)C` [Peptide 12, [PhAc^0, D-Arg^2, Phe(pCl)^6, Nle^9, Abu^15, Nle^27, D-Arg^29]hGH-RH(1–29)NH2] (PhAc-Y[dR]DAI[Phe(4-Cl)]TN[Nle]YRKVL[Abu]QLSARKLLQDI[Nle]S[dR]-NH2), in assay [2] (antagonist 30 nM), the “Inhibition of GH release (%) 30 min” value turned out to be 75%, the “Inhibition of GH release (%) 60 min” value is listed as 48%, the “Inhibition of GH release (%) 90 min” value is listed as 52% and the “Inhibition of GH release (%) 120 min” value was 52%. Further, the “Inhibition of GH release (%) 0 min” value in assay [2] (antagonist 30 nM) worked out at 68%. For the same molecule, in assay [3], the pKi is 10.15 and the “R.A. (relative affinity compared to Standard antagonist)” value was 42.

Consider `CC[C@H](C)[C@H](NC(=O)[C@H](C)NC(=O)[C@H](CC(=O)O)NC(=O)[C@@H](CCCNC(=N)N)NC(=O)[C@H](Cc1ccc(O)cc1)NC(C)=O)C(=O)N[C@@H](Cc1ccccc1)C(=O)N[C@H](C(=O)N[C@@H](CC(N)=O)C(=O)N[C@@H](CO)C(=O)N[C@@H](Cc1ccc(O)cc1)C(=O)N[C@@H](CCCNC(=N)N)C(=O)N[C@@H](CCCCN)C(=O)N[C@H](C(=O)N[C@@H](CC(C)C)C(=O)NCC(=O)N[C@@H](CCC(N)=O)C(=O)N[C@@H](CC(C)C)C(=O)N[C@@H](CO)C(=O)N[C@@H](C)C(=O)N[C@@H](CCCNC(=N)N)C(=O)N[C@@H](CCCCN)C(=O)N[C@@H](CC(C)C)C(=O)N[C@@H](CC(C)C)C(=O)N[C@@H](CCC(N)=O)C(=O)N[C@@H](CC(=O)O)C(=O)N[C@H](C(=O)N[C@@H](CCSC)C(=O)N[C@@H](CO)C(=O)N[C@@H](CCCNC(=N)N)C(N)=O)[C@@H](C)CC)C(C)C)[C@@H](C)O` [Standard antagonist, [Ac-Tyr^1,D-Arg^2]hGH-RH(1–29)NH2, reference compound] (Ac-Y[dR]DAIFTNSYRKVLGQLSARKLLQDIMSR-NH2), for which, in assay [2] (antagonist 100 nM), the “Inhibition of GH release (%) 30 min” value worked out at 2.5%, the “Inhibition of GH release (%) 60 min” value is 19% and the “Inhibition of GH release (%) 0 min” value is recorded as 62.1%. For the same molecule, in assay [3], the pKi is 8.53 and the “R.A. (relative affinity compared to Standard antagonist)” value came to 1.
